The experiment concerns the target Genome polyprotein (Hepacivirus C, UniProt A3EZJ3). The experiment is described as follows: EMSA. To be noted: pH 7.5; 23 °C. On the procedure:
Binding assays containing 25 mM MOPS pH 7.5, 1.25 mM MgCl2, 20 nM Cy5-dT15, and 200 nM NS3h_1b were incubated 5 min at RT. Following addition of indicated concentrations of ebselen, the binding reactions were incubated another 5 min at 23 C.
(In EMSA bound probe runs differently from free probe, usually more slowly.)

Sequence of Genome polyprotein (A3EZJ3 whole entry): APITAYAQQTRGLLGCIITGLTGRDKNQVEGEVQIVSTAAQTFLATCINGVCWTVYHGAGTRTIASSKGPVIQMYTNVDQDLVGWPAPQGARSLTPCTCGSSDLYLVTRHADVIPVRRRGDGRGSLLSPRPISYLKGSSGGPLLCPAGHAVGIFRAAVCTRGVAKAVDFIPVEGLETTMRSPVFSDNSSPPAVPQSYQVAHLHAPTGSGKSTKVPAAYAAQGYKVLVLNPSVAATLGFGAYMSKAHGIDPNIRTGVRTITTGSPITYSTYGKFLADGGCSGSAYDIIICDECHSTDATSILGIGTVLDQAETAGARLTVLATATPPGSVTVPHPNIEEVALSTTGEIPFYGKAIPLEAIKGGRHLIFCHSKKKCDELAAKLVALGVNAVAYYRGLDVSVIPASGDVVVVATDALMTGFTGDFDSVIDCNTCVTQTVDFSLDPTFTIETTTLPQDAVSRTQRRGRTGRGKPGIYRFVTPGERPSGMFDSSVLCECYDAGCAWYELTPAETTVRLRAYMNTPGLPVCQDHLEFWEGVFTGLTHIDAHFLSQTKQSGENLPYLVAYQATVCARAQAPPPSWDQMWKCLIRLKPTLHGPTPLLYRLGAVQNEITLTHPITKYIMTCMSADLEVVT

By IC50 is commonly meant the point on the concentration scale where inhibition reaches its midpoint. Low readings indicate greater potency, high ones weaker potency. Molecule `Cc1ccccc1NC(=O)Cn1sc2ccccc2c1=O` registered an IC50 of 3.9 µM.

Source of the values: BindingDB's records for doi:10.1021/cb500512z (University of Wisconsin-Milwaukee, 2014).
